# According to patent US11173145B2, “Compounds useful as inhibitors of indoleamine 2,3-dioxygenase and/or tryptophan dioxygenase” (Board of Regents, The University of Texas System, priority 2017, dated 2021):
# Columns and labels:
# [1] = molecular target: T1, mouse IDO1 (Mus musculus, UniProt P28776); test: Mouse IDO1 cell-based assay (PANC02 cells, mouse IFNgamma-induced, N-formylkynurenine/L-tryptophan by RFMS); settings: 30 ng/mL mouse IFNgamma, 48 hours
# T1 construct: The murine PANC02 pancreatic ductal adenocarcinoma cell line was routinely maintained in DMEM media; endogenous in cells; host or cells: PANC02 murine pancreatic ductal adenocarcinoma cells, induced with mouse IFNgamma
# T1 sequence (P28776 whole entry): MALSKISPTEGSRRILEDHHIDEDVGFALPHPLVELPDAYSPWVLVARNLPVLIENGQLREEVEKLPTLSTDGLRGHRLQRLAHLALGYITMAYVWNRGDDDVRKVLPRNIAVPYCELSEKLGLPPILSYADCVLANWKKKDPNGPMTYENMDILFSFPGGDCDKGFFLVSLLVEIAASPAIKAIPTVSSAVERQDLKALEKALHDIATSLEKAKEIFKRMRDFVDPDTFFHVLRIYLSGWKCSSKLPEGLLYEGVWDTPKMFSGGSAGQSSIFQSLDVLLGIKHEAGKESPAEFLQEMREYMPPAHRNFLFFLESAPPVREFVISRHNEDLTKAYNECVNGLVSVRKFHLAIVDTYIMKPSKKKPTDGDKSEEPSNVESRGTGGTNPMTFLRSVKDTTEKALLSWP
# [2] = molecular target: T2, IDO1 (Homo sapiens, UniProt P14902); test: IDO1 cell-based assay (HeLa cells, IFNgamma-induced, N-formylkynurenine/L-tryptophan by RFMS); settings: 10 ng/mL IFNgamma, 24 hours
# T2 construct: endogenous in cells; host or cells: HeLa cells (ATCC), IFNgamma-induced
# T2 sequence (P14902 whole entry): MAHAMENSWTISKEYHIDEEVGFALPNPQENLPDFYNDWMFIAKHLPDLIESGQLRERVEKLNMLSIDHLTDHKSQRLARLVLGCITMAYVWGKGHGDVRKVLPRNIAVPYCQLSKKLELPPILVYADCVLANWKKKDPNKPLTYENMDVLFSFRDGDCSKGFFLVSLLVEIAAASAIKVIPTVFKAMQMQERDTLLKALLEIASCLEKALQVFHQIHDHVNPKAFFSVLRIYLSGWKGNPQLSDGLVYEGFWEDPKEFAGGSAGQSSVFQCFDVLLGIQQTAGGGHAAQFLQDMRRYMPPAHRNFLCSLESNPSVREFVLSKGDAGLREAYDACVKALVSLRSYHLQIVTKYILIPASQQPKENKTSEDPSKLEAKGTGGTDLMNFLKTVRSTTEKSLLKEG
# Procedure, shortened: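 N-formylkynurenine and tryptophan peak areas in media measured by RFMS (C18, isocratic, d-Trp standard), giving IC50 values by regression. Source: HeLa cells incubated 24 h with IFNgamma (10 ng/mL) plus test compound at 0.5% DMSO; parallel CellTiter-Glo viability read.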
Structure (SMILES),IC50 [1] [nM],IC50 [2] [nM]
"CCC(NC(=O)c1ccc(Cl)cc1)[C@H]1[C@@H]2C[C@@H](n3ccc4cc(F)ccc43)C[C@@H]21 (stereo partly drawn) [Compound 229, 4-chloro-N-(1-((1R,3s,5S,6r)-3-(5-fluoro-1H-indol-1-yl)bicyclo[3.1.0]hexan-6-yl)propyl)benzamide]",< 500,< 200
"CCC(NC(=O)c1ccc(Cl)cc1)[C@H]1[C@@H]2C[C@@H](n3cc(N4C(=O)c5ccccc5C4=O)nn3)C[C@@H]21 (stereo partly drawn) [Compound 232, 4-chloro-N-(1-((1R,3s,5S,6r)-3-(4-(1,3-dioxoisoindolin-2-yl)-1H-1,2,3-triazol-1-yl)bicyclo[3.1.0]hexan-6-yl)propyl)benzamide]",> 5000,> 5000
"CCC(NC(=O)c1ccc(Cl)cc1)[C@H]1[C@@H]2C[C@@H](n3cc(C4CN(C(=O)OC(C)(C)C)C4)nn3)C[C@@H]21 (stereo partly drawn) [Compound 233, tert-butyl 3-(1-((1R,3s,5S,6r)-6-(1-(4-chlorobenzamido)propyl)bicyclo[3.1.0]hexan-3-yl)-1H-1,2,3-triazol-4-yl)azetidine-1-carboxylate]",> 5000,2000 to 5000
"CCC(NC(=O)c1ccc(Cl)cc1)[C@H]1[C@@H]2C[C@@H](Nc3ncc(F)cc3[N+](=O)[O-])C[C@@H]21 (stereo partly drawn) [Compound 236, 4-chloro-N-(1-((1R,3s,5S,6r)-3-((5-fluoro-3-nitropyridin-2-yl)amino)bicyclo[3.1.0]hexan-6-yl)propyl)benzamide]",500 to 2000,< 200
"CCC(NC(=O)c1ccc(Cl)cc1)[C@H]1[C@@H]2C[C@@H](n3cc(C4CNC4)nn3)C[C@@H]21 (stereo partly drawn) [Compound 237, N-(1-((1R,3s,5S,6r)-3-(4-(azetidin-3-yl)-1H-1,2,3-triazol-1-yl)bicyclo[3.1.0]hexan-6-yl)propyl)-4-chlorobenzamide]",> 5000,> 5000
"CCC(NC(=O)c1ccc(Cl)cc1)[C@H]1[C@@H]2C[C@@H](n3cc(N(C)C)nn3)C[C@@H]21 (stereo partly drawn) [Compound 238, 4-chloro-N-(1-((1R,3s,5S,6r)-3-(4-(dimethylamino)-1H-1,2,3-triazol-1-yl)bicyclo[3.1.0]hexan-6-yl)propyl)benzamide]",< 500,< 200
"CCC(NC(=O)c1ccc(Cl)cc1)[C@H]1[C@@H]2C[C@@H](n3cc(N)nn3)C[C@@H]21 (stereo partly drawn) [Compound 239, N-(1-((1R,3s,5S,6r)-3-(4-amino-1H-1,2,3-triazol-1-yl)bicyclo[3.1.0]hexan-6-yl)propyl)-4-chlorobenzamide]",> 5000,2000 to 5000
"COCc1cn([C@@H]2C[C@@H]3[C@H](C2)[C@H]3C(C)NC(=O)c2ccc(C#N)cc2)nn1 (stereo partly drawn) [Compound 242, 4-cyano-N-(1-((1R,3s,5S,6r)-3-(4-(methoxymethyl)-1H-1,2,3-triazol-1-yl)bicyclo[3.1.0]hexan-6-yl)ethyl)benzamide]",> 5000,200 to 2000
"CCC(NC(=O)c1ccc(Cl)cc1)[C@H]1[C@@H]2C[C@@H](Nc3cc(F)cc(F)c3[N+](=O)[O-])C[C@@H]21 (stereo partly drawn) [Compound 243, 4-chloro-N-(1-((1R,3s,5S,6r)-3-((3,5-difluoro-2-nitrophenyl)amino)bicyclo[3.1.0]hexan-6-yl)propyl)benzamide]",500 to 2000,200 to 2000
"CCC(NC(=O)c1ccc(Cl)cc1)[C@H]1[C@@H]2C[C@@H](Nc3c([N+](=O)[O-])ccc(F)c3F)C[C@@H]21 (stereo partly drawn) [Compound 244, 4-chloro-N-(1-((1R,3s,5S,6r)-3-((2,3-difluoro-6-nitrophenyl)amino)bicyclo[3.1.0]hexan-6-yl)propyl)benzamide]",500 to 2000,< 200
"O=C(NCc1ccc(Cl)cc1)[C@@H]1[C@@H]2CN(c3ncnc4ccc(F)cc34)C[C@@H]21 [Compound 249, (1R,5S,6s)-N-(4-chlorobenzyl)-3-(6-fluoroquinazolin-4-yl)-3-azabicyclo[3.1.0]hexane-6-carboxamide]",> 5000,> 5000
"O=C(Nc1ccc(Cl)cc1)[C@@H]1[C@@H]2CN(c3ncnc4ccc(F)cc34)C[C@@H]21 [Compound 250, (1R,5S,6s)-N-(4-chlorophenyl)-3-(6-fluoroquinazolin-4-yl)-3-azabicyclo[3.1.0]hexane-6-carboxamide]",> 5000,> 5000
"O=C(NCc1ccc(Cl)cc1)[C@H]1[C@@H]2CN(c3ncnc4ccc(F)cc34)C[C@@H]21 [Compound 251, (1R,5S,6r)-N-(4-chlorobenzyl)-3-(6-fluoroquinazolin-4-yl)-3-azabicyclo[3.1.0]hexane-6-carboxamide]",> 5000,> 5000
"O=C(Nc1ccc(Cl)cc1)[C@H]1[C@@H]2CN(c3ncnc4ccc(F)cc34)C[C@@H]21 [Compound 252, (1R,5S,6r)-N-(4-chlorophenyl)-3-(6-fluoroquinazolin-4-yl)-3-azabicyclo[3.1.0]hexane-6-carboxamide]",2000 to 5000,> 5000
"CCC(NC(=O)c1ccc(Cl)cc1)[C@H]1[C@@H]2C[C@@H](Oc3ncnc4cc(Cl)ccc34)C[C@@H]21 (stereo partly drawn) [Compound 253, 4-chloro-N-(1-((1R,3s,5S,6r)-3-((7-chloroquinazolin-4-yl)oxy)bicyclo[3.1.0]hexan-6-yl)propyl)benzamide]",2000 to 5000,< 200
"CCC(NC(=O)c1ccc(Cl)cc1)[C@@H]1[C@H]2C=C(c3cncc(C(F)(F)F)c3)C[C@H]21 (stereo partly drawn) [Compound 254, 4-chloro-N-(1-((1R,5R,6S)-3-(5-(trifluoromethyl)pyridin-3-yl)bicyclo[3.1.0]hex-2-en-6-yl)propyl)benzamide]",< 500,< 200
"CCC(NC(=O)c1ccc(Cl)cc1)[C@@H]1[C@H]2C=C(c3ncnc4cc(F)ccc34)C[C@H]21 (stereo partly drawn) [Compound 255, 4-chloro-N-(1-((1R,5R,6S)-3-(7-fluoroquinazolin-4-yl)bicyclo[3.1.0]hex-2-en-6-yl)propyl)benzamide]",2000 to 5000,200 to 2000
"CCC(NC(=O)c1ccc(Cl)cc1)[C@H]1[C@@H]2C[C@@H](n3cc(NC(C)=O)nn3)C[C@@H]21 (stereo partly drawn) [Compound 256, N-(1-((1R,3s,5S,6r)-3-(4-acetamido-1H-1,2,3-triazol-1-yl)bicyclo[3.1.0]hexan-6-yl)propyl)-4-chlorobenzamide]",> 5000,> 5000
"CCC(NC(=O)c1ccc(Cl)cc1)[C@H]1[C@@H]2C[C@@H](n3cc(C4CN(C(C)=O)C4)nn3)C[C@@H]21 (stereo partly drawn) [Compound 257, N-(1-((1R,3s,5S,6r)-3-(4-(1-acetylazetidin-3-yl)-1H-1,2,3-triazol-1-yl)bicyclo[3.1.0]hexan-6-yl)propyl)-4-chlorobenzamide]",> 5000,> 5000
"CCC(NC(=O)c1ccc(Cl)cc1)[C@H]1[C@@H]2C[C@@H](n3ncnc3C3CC3)C[C@@H]21 (stereo partly drawn) [Compound 258, 4-chloro-N-(1-((1R,3s,5S,6r)-3-(5-cyclopropyl-1H-1,2,4-triazol-1-yl)bicyclo[3.1.0]hexan-6-yl)propyl)benzamide]",2000 to 5000,200 to 2000
"CCC(NC(=O)c1ccc(Cl)cc1)[C@H]1[C@@H]2C[C@@H](n3cnc(C4CC4)c3)C[C@@H]21 (stereo partly drawn) [Compound 261, 4-chloro-N-(1-((1R,3s, 5S, 6r)-3-(4-cyclopropyl-1H-imidazol-1-yl)bicyclo[3.1.0]hexan-6-yl)propyl)benzamide]",500 to 2000,< 200
